Like-named read-outs stand apart in the source and are kept apart here.
What was measured:
[1] = test system: PD1-ss+10aa/Gaussia Luciferase; experiment: Dox-Induced PD1-ss-Gluc Assay; assay type: cell-based
Procedure, shortened: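 Gaussia luciferase fused downstream of the PD1 signal peptide plus 10 residues was expressed on doxycycline induction in stably transfected Flp-In 293 T-REx cells. Compounds were added with doxycycline and incubated at 37 °C, 5% CO2.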

[2] = Liver Microsome Stability Assay, human; assay type: in vitro ADME; details: human liver microsomes 1.0 mg/mL, 1.0 uM compound, 37° C., 1 mM NADPH
Procedure, shortened: (§1)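 Each species' liver microsomes at 1.0 mg/mL received 1.0 uM compound in 0.1 M potassium phosphate with 0.4% DMSO. Reactions proceeded at 37° C in the presence or absence of 1 mM NADPH. Quenching followed at 0 and 30 minutes.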

[3] = test system: TNFα-FL/Gaussia Luciferase; experiment: Dox Induced TNFα-FL-Gluc Assay; assay type: cell-based
Source text: (§2) Flp-In 293 T-REx™ cells were transfected with pcDNA™5/FRT/TO plasmid inserted with cDNA encoding Gaussia Luciferase fused to the 3′ end of cDNA encoding full length TNFα (amino acids 1-233). Transfected cells were selected for resistance to the selectable markers Hygromycin and Blasticidin to create a stable cell line that contained the TNFα-FL/Gaussia Luciferase cDNA insert whose expression was regulated under the T-REx™ system. The day before assay, cells were trypsinized and plated in 384-well tissue culture plates. The next day, compound dilutions in DMSO/media containing doxycycline were added to the wells and incubated at 37° C., 5% CO2.
(§3) For chemical structures that include one or more stereoisomers, but are illustrated without indicating stereochemistry, the assay data refers to a mixture of stereoisomers.

[4] = Liver Microsome Stability Assay, mouse; assay type: in vitro ADME; details: mouse liver microsomes 1.0 mg/mL, 1.0 uM compound, 37° C., 1 mM NADPH
Procedure, shortened: as §1

[5] = Liver Microsome Stability Assay, monkey; assay type: in vitro ADME; details: monkey liver microsomes 1.0 mg/mL, 1.0 uM compound, 37° C., 1 mM NADPH
Procedure, shortened: as §1

[6] = Liver Microsome Stability Assay, rat; assay type: in vitro ADME; details: rat liver microsomes 1.0 mg/mL, 1.0 uM compound, 37° C., 1 mM NADPH
Procedure, shortened: as §1

[7] = test system: IL-2-FL/Gaussia Luciferase; experiment: Dox Inducible IL2-FL-Gluc Assay; assay type: cell-based
Procedure, shortened: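 Stable Flp-In 293 T-REx line, Tet-regulated IL-2 (aa 1-153)–Gaussia luciferase fusion; hygromycin/blasticidin selected. Plated day -1; compound + doxycycline added next day; 37° C, 5% CO2.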

[8] = test system: HER3-ss+4aa/Gaussia Luciferase; experiment: Dox-Inducible Her3-ss-Gluc Assay; assay type: cell-based
Source text: as §2, with “HER3 signal sequence plus 4 amino” for “full length TNFα (amino”, “(N-[…]-C) (SEQ ID NO: 2).” for “1-233).”, “HER3-ss+4aa/Gaussia” for “TNFα-FL/Gaussia”
as §3

[9] = test system: multiple myeloma cell line NCI-H929; experiment: H929 Cell Viability Assay; assay type: cell-based, human; details: Homo sapiens
Procedure, shortened: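 Cells in RPMI 1640/10% FBS; compound dilutions in DMSO/media; 48 h, 37° C, 5% CO2; CellTiter-Glo luciferase readout for viability.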

[10] = test system: multiple myeloma cell line U266B1; experiment: U266 Cell Viability Assay; assay type: cell-based; details: Homo sapiens
Procedure, shortened: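 Luminescent ATP read-out (CellTiter-Glo) after 48 h compound exposure at 37° C., 5% CO2; cells maintained in RPMI 1640/10% FBS/2 mM glutamine/pen-strep, compounds diluted in DMSO/media.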

[11] = read-out: 24 hr Dox Inducible PD1ssGluc 293FRT/TO: Mean IC50; Flp-In 293 T-REx cells, 24 hours with doxycycline; Table 3
[12] = ratio of IC50s TNF/PD1; Table 3
[13] = read-out: 24 hr Dox Inducible TNFaFLGluc 293FRT/TO: Mean IC50; Flp-In 293 T-REx cells, 24 hours with doxycycline; Table 3
[14] = ratio of IC50s IL2/PD1; Table 3
[15] = read-out: 24 hr Dox Inducible IL2FLGluc 293FRT/TO: Mean IC50; Flp-In 293 T-REx cells, 24 hours with doxycycline; Table 3
[16] = read-out: 24 hr Dox Inducible Her3(ss + 4)Gluc 293FRT/TO: Mean IC50; Flp-In 293 T-REx cells, 24 hours with doxycycline; Table 3
[17] = NCI-H929, 48 h, read-out: 48 hr H929 Viability Celltiter-Glo: Mean EC50 (nM)
[18] = U-266, 48 h, read-out: 48 hr U266 Viability Celltiter-Glo: Mean EC50 (nM)
[19] = Flp-In 293 T-REx cells, 24 hours with doxycycline; Table 3; read-out: 24 hr Dox Inducible PD1ssGluc 293FRT/TO: Mean IC50
[20] = Flp-In 293 T-REx cells, 24 hours with doxycycline; Table 3; read-out: 24 hr Dox Inducible TNFaFLGluc 293FRT/TO: Mean IC50
[21] = Flp-In 293 T-REx cells, 24 hours with doxycycline; Table 3; read-out: 24 hr Dox Inducible IL2FLGluc 293FRT/TO: Mean IC50
[22] = Flp-In 293 T-REx cells, 24 hours with doxycycline; Table 3; read-out: 24 hr Dox Inducible Her3(ss + 4)Gluc 293FRT/TO: Mean IC50
[23] = NCI-H929 cells, 48 hours, Celltiter-Glo, read-out: 48 hr H929 Viability Celltiter-Glo: Mean EC50
[24] = U-266, U266B1 cells, 48 hours, Celltiter-Glo, read-out: 48 hr U266 Viability Celltiter-Glo: Mean EC50

Liver Microsome Stability (Multiple Species): Human - % Remaining after 30 min w/ NADPH (%) [2] [%] | Liver Microsome Stability (Multiple Species): Mouse - % Remaining after 30 min w/ NADPH (%) [4] [%] | Liver Microsome Stability (Multiple Species): Monkey - % Remaining after 30 min w/ NADPH (%) [5] [%] | Liver Microsome Stability (Multiple Species): Rat - % Remaining after 30 min w/ NADPH (%) [6] [%] | IC50 [1, 19] [µM] | IC50 [3, 20] [µM] | IC50 [7, 21] [µM] | IC50 [8, 22] [µM] | EC50 [9, 23] [nM] | EC50 [10, 24] [nM] | SMILES | IC50 [1, 11] [µM] | 24 hr Dox Inducible TNFaFLGluc 293FRT/TO: TNF/PD1 [3, 12] | IC50 [3, 13] [µM] | 24 hr Dox Inducible IL2FLGluc 293FRT/TO: IL2/PD1 [7, 14] | IC50 [7, 15] [µM] | IC50 [8, 16] [µM] | EC50 [9, 17] [nM] | EC50 [10, 18] [nM]
<1 | 53 | 1 | 19 | 0.644 | > 25 | > 25 | > 25 | > 25000 | > 25000 | O=C1CCn2cc(/C=C/c3csc(NC(=O)c4cccn4Cc4ccnc(F)c4)n3)nc2N1 [Compound B3, (E)-1-((2-fluoropyridin-4-yl)methyl)-N-(4-(2-(7-oxo-5,6,7,8-tetrahydroimidazo[1,2-a]pyrimidin-2-yl)vinyl)thiazol-2-yl)-1H-pyrrole-2-carboxamide] | – | >38 | – | >39 | – | – | – | –
<1 | 7 | <1 | 1 | 0.013 | 7.04 | 1.65 | 0.816 | 8750 | 19400 | O=C(Nc1nc(/C=C/c2ccc(OC(F)F)cn2)cs1)c1cccn1Cc1ccnc(F)c1 [Compound B4, (E)-N-(4-(2-(5-(difluoromethoxy)pyridin-2-yl)vinyl)thiazol-2-yl)-1-((2-fluoropyridin-4-yl)methyl)-1H-pyrrole-2-carboxamide] | – | 544 | – | 130 | – | – | – | –
4 | 20 | <1 | 20 | 0.017 | 3.94 | 1.2 | 0.553 | > 25000 | > 25000 | O=C(Nc1nc(/C=C/c2ccc(C(F)(F)F)cn2)cs1)c1cccn1Cc1ccnc(F)c1 [Compound B5, (E)-1-((2-fluoropyridin-4-yl)methyl)-N-(4-(2-(5-(trifluoromethyl)pyridin-2-yl)vinyl)thiazol-2-yl)-1H-pyrrole-2-carboxamide] | – | 230 | – | 70 | – | – | – | –
42 | 63 | 24 | 41 | 0.031 | 0.445 | 0.265 | 0.137 | > 25000 | > 25000 | O=C(Nc1nc(/C=C/c2ccc(OC3CC3)cc2F)cs1)c1cccn1Cc1ccnc(F)c1 [Compound B6, (E)-N-(4-(4-cyclopropoxy-2-fluorostyryl)thiazol-2-yl)-1-((2-fluoropyridin-4-yl)methyl)-1H-pyrrole-2-carboxamide] | – | 14 | – | 9 | – | – | – | –
4 | 23 | 6 | 13 | 0.03 | 3.98 | 0.499 | 0.184 | 8090 | > 25000 | C/C(=C\c1ccc(C)c(F)n1)c1csc(NC(=O)c2cccn2Cc2ccnc(F)c2)n1 [Compound B7, (E)-N-(4-(1-(6-fluoro-5-methylpyridin-2-yl)prop-1-en-2-yl)thiazol-2-yl)-1-((2-fluoropyridin-4-yl)methyl)-1H-pyrrole-2-carboxamide] | – | 134 | – | 17 | – | – | – | –

SMILES | Liver Microsome Stability (Multiple Species): Human - % Remaining after 30 min w/ NADPH (%) [2] [%] | Liver Microsome Stability (Multiple Species): Mouse - % Remaining after 30 min w/ NADPH (%) [4] [%] | Liver Microsome Stability (Multiple Species): Monkey - % Remaining after 30 min w/ NADPH (%) [5] [%] | Liver Microsome Stability (Multiple Species): Rat - % Remaining after 30 min w/ NADPH (%) [6] [%] | IC50 [1, 19] [µM] | IC50 [3, 20] [µM] | IC50 [7, 21] [µM] | IC50 [8, 22] [µM] | EC50 [9, 23] [nM] | EC50 [10, 24] [nM] | IC50 [1, 11] [µM] | 24 hr Dox Inducible TNFaFLGluc 293FRT/TO: TNF/PD1 [3, 12] | IC50 [3, 13] [µM] | 24 hr Dox Inducible IL2FLGluc 293FRT/TO: IL2/PD1 [7, 14] | IC50 [7, 15] [µM] | IC50 [8, 16] [µM] | EC50 [9, 17] [nM] | EC50 [10, 18] [nM]
O=C(Nc1nc(/C=C/c2ncoc2CO)cs1)c1cccn1Cc1ccnc(F)c1 [Compound B1, (E)-1-((2-fluoropyridin-4-yl)methyl)-N-(4-(2-(5-(hydroxymethyl)oxazol-4-yl)vinyl)thiazol-2-yl)-1H-pyrrole-2-carboxamide] | 10 | 29 | 2 | 3 | – | – | – | – | – | – | 8.93 | >2 | > 25 | >2.8 | > 25 | > 25 | > 25000 | > 25000
CC(C)n1cnc(F)c1/C=C/c1csc(NC(=O)c2cccn2Cc2ccnc(F)c2)n1 [Compound B2, (E)-N-(4-(2-(4-fluoro-1-isopropyl-1H-imidazol-5-yl)vinyl)thiazol-2-yl)-1-((2-fluoropyridin-4-yl)methyl)-1H-pyrrole-2-carboxamide] | <1 | 6 | <1 | 8 | – | – | – | – | – | – | 4.48 | >5 | > 25 | 2 | 6.64 | 6.4 | > 25000 | > 25000

Reference: patent US20250171434A1, “SEC61 INHIBITORS AND USE THEREOF” (KEZAR LIFE SCIENCES, INC., priority 2022, published 2025)
